Bounds are passed on as bounds.

For orientation: melting point means the temperature, or range, at which the solid turns liquid. `CCOc1cc2c(cc1S(=O)(=O)NC(=O)NC)C(CNC(=O)c1cc(Cl)ccc1OC)CCO2` (centres undefined): the melting point was in the range of 207 to 208 °C.

In the case of `COC(=O)c1cc(=O)c2oc3ccc(Cl)cc3c(=O)c2n1C`, the melting point lay in the range of 276 to 278 °C.

Molecule `O=C(Nc1n[nH]c(=S)s1)NC(Cc1ccccc1)C(=O)NCc1ccccn1` (centres undefined) had a melting point of 159 to 161 °C.

Consider `CC(=O)c1cc2c(s1)CCC1CC(=O)N(c3ccc(Cl)cc3)N=C21` (centres undefined), for which the melting point was 155 to 157 °C.

`CC(Cl)(Cl)C(NC(=O)c1ccc(Cl)cc1)NC(=N[N+](=O)[O-])Nc1cccnc1` (centres undefined) yielded a melting point of 170 to 172 °C.

In the case of `CC(C)(C)C(NC(=O)c1ccc(Cl)cc1)NC(=NC#N)Nc1cc(F)ccc1F` (centres undefined), the melting point lay within 196 to 198 °C.

`O=C(O)c1ccc2oc(Cc3cccnc3)cc2c1`: the melting point was in the range of 197 to 198 °C.

In the case of `CCOC(=O)N1CCC(=C2c3ccc(Cl)cc3OCc3cc([N+](=O)[O-])cnc32)CC1`, the melting point was 192 to 193 °C.

Take `CC(C)c1ccc(NC(=N)c2cccc(NC(=O)C=Cc3ccccc3Cl)c2)cc1`: the melting point fell in the range of 112 to 118 °C.

Regarding `Cc1cc(Cl)cc(COc2cccc(OCc3ccc4ccccc4n3)c2)c1OCc1nnn[nH]1`, the melting point is 181 to 184 °C.

As for `CC(C)NC(=O)c1c(I)cccc1C(=O)Nc1ccc(OCC(F)(F)F)nc1`, the melting point was 220 to 225 °C.

As to `CCCNC(=O)Nc1ccccc1`, the melting point was 106 to 107 °C.

The molecule `COC(=O)c1ccc(CN(Cc2cc(Br)ccc2OCc2ccccc2)c2ccc(C(=O)OC(C)(C)C)cc2)cc1` came in with a melting point of 154 to 155 °C.

Turning to `CCOC(=O)C1=C(Cl)N=C(C)N(C(=O)OC)C1c1cccc([N+](=O)[O-])c1` (centres undefined), the melting point was in the range of 113 to 114 °C.

In turn, `CNC(=O)C(C)n1c(-c2ccc(Cl)cc2)nc2cccnc21` (centres undefined) had a melting point of 217 to 218 °C.

In turn, `COC(=O)c1cc(F)c(C)c(N)c1Cl` displayed a melting point of 51 to 52 °C.

With `Cn1c(=O)c2c(-c3ccccc3)n(-c3cc([N+](=O)[O-])ccc3N)cc2n(C)c1=O`, the melting point is more than 300 °C.

Consider `CCOC(=O)CC1=NCC(c2cccc(OCc3ccc4ccccc4n3)c2)O1` (centres undefined), for which the melting point was in the range of 94 to 95 °C.

`Oc1cccc(COC=C2C3CC4CC(C3)CC2C4)c1` displayed a melting point of 133 to 134 °C.

In turn, `c1ccc(C2=Nc3cccnc3Nc3ccccc32)cc1` registered a melting point of 106 to 108 °C.

As to `CC(C)(C)C(=O)Nc1ccc(Cl)cn1`, the melting point fell in the range of 51.4 to 53.4 °C.

`CNC(=O)Oc1ccc2c(ccn2NCCCc2ccncc2F)c1` came in with a melting point of 165 to 166 °C.

Take `O=C(O)[C@@H]1CC2(CN1C(=O)OCc1ccccc1)OCCO2`: the melting point was in the range of 179 to 180 °C.

With `Cc1cn2nc(SCc3ccccc3)nc2nc1C`, the melting point is 147 to 149 °C.

The molecule `COc1ccc2c(-c3cnc4[nH]cc(C(=O)N[C@H](C)C(=O)N5CC(C#N)C5)c4n3)nn(C)c2c1` gave a melting point of 220 to 240 °C.

`O=C1OCc2c(c3cc(-c4ccc(Cl)cc4)ccc3n2Cc2ccccc2)C1=O` had a melting point of 263 to 264 °C.

`CCOC(=O)c1nc(NC)sc1C(=O)C(C)Br` (centres undefined) registered a melting point of 104 to 106 °C.

`CCOC(=O)CC(=O)c1c(F)cc(Br)cc1F` had a melting point of 49 to 52 °C.

The molecule `COC(=O)c1sc(C(F)(F)F)cc1OCc1ccccc1` yielded a melting point of 52 to 53.5 °C.

In the case of `FC(F)(F)c1ccc(Nc2nc3ccccc3o2)cc1`, the melting point was 180 to 182 °C.

In turn, `CC1(C)Oc2ccc(C#N)cc2C(C(=O)Nc2ccccc2)=C1O` came in with a melting point of 167 to 170 °C.

In turn, `CCOC(=O)CCCCC(=O)c1c(CBr)n(C(C)=O)c(=O)n1C(C)=O` yielded a melting point of 114 to 115 °C.

With `Cc1ccc2c(c1)CC(=S)N2C`, the melting point lay within 143 to 145 °C.

Regarding `CC1CCCC(Cc2c[nH]c3c(=O)[nH]c(N)nc23)C1` (centres undefined), the melting point turned out to be 282 °C.

`CCOC(=O)C=Cc1ccc(CCNS(=O)(=O)CCc2ccccc2)cc1` gave a melting point of 98 to 99 °C.

`CN1CCc2cc(O)c(O)c(SCc3ccco3)c2CC1` came in with a melting point of 162 to 165 °C.

For `O=c1[nH]c2cc(Cl)ccc2c(O)c1-n1cccn1`, the melting point was 310 °C.

As to `CCOP(=O)(Cc1nc(Cl)cc(N2CCCC2)n1)OCC`, the melting point fell in the range of 68 to 69 °C.

With `CN(CCc1ccc(Nc2ncc3c(n2)-c2ccccc2[C@H](c2ccc(F)cc2)C3)cc1)C1CCCCC1`, the melting point fell in the range of 160 to 162 °C.

`CC(C)n1nc(-c2c(-c3ccccc3)nn3ccc(OCC(=O)NCCN(C)C)cc23)ccc1=O` returned a melting point of 117 to 119 °C.

`O=C(C=C1CCCCC1)C1Cc2c([nH]c3ccccc23)C(c2ccc3c(c2)OCO3)N1` (centres undefined): the melting point was in the range of 116 to 118 °C.

Molecule `Oc1ccc2ccc(C(O)C(F)(F)F)cc2c1` (centres undefined) came in with a melting point of 174 to 175 °C.

In turn, `Cc1cc(Cl)nnc1-c1ccc(C#N)cc1` came in with a melting point of 218 to 220 °C.

For `Cc1ncc([N+](=O)[O-])n1CCN(CCCC(C)N(CCn1c([N+](=O)[O-])cnc1C)CCn1c([N+](=O)[O-])cnc1C)CCn1c([N+](=O)[O-])cnc1C` (centres undefined), the melting point lay within 150 to 151 °C.

Consider `OC(COc1ccc(-c2ccccc2Br)cc1)CN1CCCC1` (centres undefined), for which the melting point is 70 to 72 °C.

`NS(=O)(=O)c1sc2ccccc2c1CCO`: the melting point is 162 to 164 °C.

For `CCOCCOc1ccc(-c2ccc3c(c2)C=C(C(=O)Nc2ccc(CN(C)C4CCOCC4)cc2)CCS3(=O)=O)cc1OCC`, the melting point lay in the range of 164 to 168 °C.

On to `CC(C)c1nn(-c2ccc(C(F)(F)F)cn2)cc1CCCOc1cccc(OC(C)(C)C(=O)O)c1`, for which the melting point lay within 101 to 102 °C.

With `COc1ccccc1C1C(C(=O)c2ccc(C)cc2)=C(O)C(=O)N1c1ccc(C)nn1` (centres undefined), the melting point was in the range of 211 to 213 °C.

For `CCCCCCCCCCCCCCC(CCC(=O)OCc1ccccc1)C(=O)O` (centres undefined), the melting point lay in the range of 62 to 63 °C.

Take `O=C(Nc1ccc(Br)cc1)C(=O)N1CCC(Cc2ccc(F)cc2)CC1`: the melting point fell in the range of 156 to 158 °C.

As to `OC1CCCc2ccc(OCc3ccc4ccccc4n3)cc21` (centres undefined), the melting point is 113 to 115 °C.

With `O=c1nc(Cc2ccccc2)nc2n(C3CCCC3)[nH]c(Cc3ccccc3)c1-2`, the melting point lay within 204 to 206 °C.

Molecule `CC(C)(C(=O)c1ccc(SCCCCCCS)cc1)N1CCOCC1` came in with a melting point of 61 to 64 °C.

`Cc1ccc(N2C(=O)C(O)=C(C(=NOCC(=O)O)c3ccc(C(C)C)cc3)C2c2ccc(C(C)C)cc2)nn1` (centres undefined) showed a melting point of 234 °C.

On to `Nc1nc(N)c(CCCCc2ccc(C(=O)N[C@@H](CCC(=O)O)C(=O)O)cc2)c(O)n1`, for which the melting point fell in the range of 169 to 171 °C.

Consider `CCCNCC(O)c1cccc(Br)c1` (centres undefined), for which the melting point lay within 79.7 to 81.4 °C.

`CC(C)C[C@H](NC(=O)Nc1n[nH]c(=S)s1)C(=O)NCc1ccccc1` yielded a melting point of 206 to 208 °C.

In the case of `Clc1ccc(C=Cc2ccc(CBr)cc2)cc1`, the melting point fell in the range of 130 to 132 °C.

Turning to `CCCCc1ncc(/C=C(/C(=O)O)C(Cc2ccccc2)c2cccs2)n1Cc1ccccc1Cl` (centres undefined), the melting point was 200 to 202 °C.

As for `CC1C=CC(C(=O)O)n2c(=O)n(CCC(=O)O)c(=O)n21` (centres undefined), the melting point fell in the range of 184 to 186 °C.

`CCC(=O)c1c(C)c(NC(=O)CC(C)(C)C)c(C)c2c1OCC2c1ccc(C(C)C)cc1` (centres undefined) registered a melting point of 163 to 164 °C.

`CCc1ccc(Nc2c(C(=O)NN)ccc(F)c2F)c(F)c1` showed a melting point of 97.9 to 98.5 °C.

For the molecule `CCC(C)N(C)C(=O)c1cc2ccsc2c(-c2ccccc2)n1` (centres undefined), the melting point turned out to be 117 °C.

As to `O=C(O)C1CCN2c3ccccc3Cc3ccccc3C2C1` (centres undefined), the melting point fell in the range of 207 to 209 °C.

For the molecule `CCc1nc2c(N)nc3ccccc3c2n1Cc1cc(-c2ccc(F)cc2)no1`, the melting point fell in the range of 232 to 233 °C.

In turn, `CCCCCC(CC(=O)OC)c1cc(C=O)c(OC)cc1OC` (centres undefined) came in with a melting point of 110 to 112 °C.

`CN(C)CC(O)COc1ccccc1CCCCc1ccccc1C(N)=O` (centres undefined): the melting point lay in the range of 149 to 151 °C.

In the case of `O=c1oc(=O)n(Cc2ccccc2)c2ccc(F)cc12`, the melting point was 95 °C.

`COC(=O)c1ccc(C=C2Cc3ccccc3C2=O)cc1` showed a melting point of 194 to 198 °C.

In turn, `Nc1nc(Cl)cc(CF)n1` yielded a melting point of 159 °C.

`COC(=O)c1cccc(-c2ccccc2)c1S(C)(=O)=O` showed a melting point of 101 to 115 °C.

In turn, `NC(=O)c1sc(Nc2ccccc2)c2c1CCc1cn[nH]c1-2` showed a melting point of 233 to 234 °C.

Regarding `CC12CCC3C(CCC4CC(I)CCC43C)C1CCC2=O` (centres undefined), the melting point was in the range of 123 to 125 °C.

The molecule `CC(C)Cn1c(CNC(=O)OC(C)(C)C)c(-c2ccccc2F)c2cc(C(=O)O)ccc2c1=O` had a melting point of 213 to 214 °C.

In turn, `CN(C(=O)CN(C(=O)CNC(=O)Nc1cccc(/C=N/O)c1)c1ccccc1)c1ccccc1` showed a melting point of 219 °C.

With `COc1cc(Nc2nccc(-c3ccncc3)n2)cc(OC)c1OC`, the melting point was determined as 205 °C.

With `CC(C)Cc1cc(-c2cc(C=C3SC(=O)NC3=O)ccc2OC(F)(F)F)c2c(c1)C(C)(C)CO2`, the melting point lay within 142 to 146 °C.

`C(OCC1CO1)C1CO1` (centres undefined) registered a melting point of 90 to 93 °C.

In the case of `CCc1cc(Oc2ccc(S(C)(=O)=O)nc2)cc2cc(C3=NCC(CC(=O)N4CCS(=O)CC4)S3)[nH]c12` (centres undefined), the melting point was in the range of 194 to 196 °C.

The molecule `CCOC(=O)NC(=O)CN(C)C(=O)c1c(F)ccc2c(C(F)(F)F)c(OC)ccc12` gave a melting point of 130 to 132 °C.

`Cc1ccc(NC(=O)Oc2ccc3c(c2)NCCC3)cc1` gave a melting point of 128 °C.

With `CN(C)C=Nc1snc(C#N)c1C#N`, the melting point came to 173 °C.

Molecule `Cc1cc(C)cc(Nc2nnc(Cc3ccncc3)c3ccccc23)c1` returned a melting point of 174 to 175 °C.

The molecule `CC(=O)N[C@H](COC(F)F)C(=O)NCc1ccc(F)cc1` gave a melting point of 163 °C.

Molecule `O=C(O)CCn1ccn([C@H]2CCc3c(F)cc(F)cc3C2)c1=S` yielded a melting point of 182 to 184 °C.

As for `CCOC(=O)C1=C(C(=O)OC)CC(=O)C2=C1SC=C1C=CC=CN12`, the melting point lay in the range of 143 to 144 °C.

The molecule `N#CSc1cc(N)c(N)cc1Cl` returned a melting point of 108 to 110 °C.

As to `O=C(O)C1(CP(=O)(OCc2ccccc2)OCc2ccccc2)CCCC1`, the melting point lay within 89 to 92 °C.

(Values after a melting point compilation (Tetko et al.; mined from patent text by program, amines drawn as free bases though some values may be those of a salt).)
